Assay results as given in article PMC9814219 (Communications Chemistry, 2020).

What was measured:
aAbPPO4 = biological target: T1, aAbPPO4 (Agaricus bisporus, UniProt C7FF05); test: activity on dopamine after pre-incubation and ultrafiltration, […] nm; type: biochemical
T1 construct: gene PPO4; N-terminal GST tag cleaved off with HRV 3C; expressed in E. coli BL21(DE3)
T1 sequence (C7FF05 1-379): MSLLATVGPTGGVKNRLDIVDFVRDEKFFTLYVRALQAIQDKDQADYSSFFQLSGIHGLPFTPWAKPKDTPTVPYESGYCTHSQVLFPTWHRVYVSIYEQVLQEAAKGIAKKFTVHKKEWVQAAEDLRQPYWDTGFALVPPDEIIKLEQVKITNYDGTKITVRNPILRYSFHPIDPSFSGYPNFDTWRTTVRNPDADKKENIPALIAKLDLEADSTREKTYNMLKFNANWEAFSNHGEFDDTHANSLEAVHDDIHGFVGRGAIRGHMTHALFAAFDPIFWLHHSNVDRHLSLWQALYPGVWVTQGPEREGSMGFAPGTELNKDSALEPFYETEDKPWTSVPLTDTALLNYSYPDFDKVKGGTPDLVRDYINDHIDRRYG

EstA = biological target: T2, EstA (Clostridium botulinum, UniProt A5I055)
T2 construct: gene lipA
T2 sequence (A5I055 1-480): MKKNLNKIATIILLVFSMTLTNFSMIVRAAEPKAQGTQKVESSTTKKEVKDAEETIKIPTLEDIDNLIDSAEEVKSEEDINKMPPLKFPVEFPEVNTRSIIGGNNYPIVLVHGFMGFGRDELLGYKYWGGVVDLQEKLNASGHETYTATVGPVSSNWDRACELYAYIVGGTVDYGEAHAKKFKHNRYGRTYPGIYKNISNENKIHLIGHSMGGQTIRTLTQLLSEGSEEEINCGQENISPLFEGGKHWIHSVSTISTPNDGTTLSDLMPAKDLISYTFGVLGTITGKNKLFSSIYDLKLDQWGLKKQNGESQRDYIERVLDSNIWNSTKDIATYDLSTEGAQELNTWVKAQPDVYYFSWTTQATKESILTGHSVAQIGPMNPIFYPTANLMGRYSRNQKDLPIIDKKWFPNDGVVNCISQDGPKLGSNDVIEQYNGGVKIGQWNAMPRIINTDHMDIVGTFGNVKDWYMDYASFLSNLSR

Row | SMILES | activity on dopamine after pre-incubation and ultrafiltration, 475 nm (aAbPPO4) | photometric, 4-nitrophenol release at 405 nm (EstA)
1 | O=S(O)O [sodium bisulphite] | the loss of PPO activity of aAbPPO4 was verified by an activity assay with dopamine | 
2 | CCCC(=O)Oc1ccc([N+](=O)[O-])cc1 [para-nitrophenyl butyrate] |  | on the model substrate para-nitrophenyl butyrate (pNPB) compared to the uncleaved enzyme
